Measured values taken from patent publication US11999758B2, “Inhibitors of the YAP/TAZ-TEAD interaction and their use in the treatment of cancer” (INVENTIVA, priority 2018, dated 2024).
Structures can show the parent of a compound that is named as a salt.

Molecular target: T1, YAP-TEAD interaction (Homo sapiens, UniProt P28347)
T1 construct: expressed in transfected cells; host or cells: HEK293 GripTite 293 MSR (Invitrogen R795-07)
Assay: Cell-based TEAD-GAL4 transactivation assay (luciferase reporter)
Conditions: HEK293 cells transfected with TEAD1-Gal4, YAP mutant (S127A, S397A) and luciferase reporter, compounds 0.1 μM to 30 μM; for Emax: HEK293, 24 h, read-out: TEAD-GAL4 Transactivation activity Max Act; for IC50: 24 h
Procedure: To identify inhibitors of YAP-TEAD interaction, a transient transactivation assay was carried out on HEK293 cell line (HEK293 GripTite™ 293 MSR (Invitrogen R795-07)) using plasmids containing the full length TEAD1 sequences, the full length YAP mutant (S127A, S397A) and a luciferase gene reporter. All expression constructs were performed into a pSG5 backbone plasmid in which the SV40 promoter was replaced by the CMV promoter. The TEAD1 construct was prepared by cloning the full-length human TEAD1 cDNA in fusion with the Gal4 DNA Binding Domain (AA 1-148) into pSG5_CMV to create the TEAD1 (FL)_hum_pSG5Gal4_CMV. The full-length YAP mutant (S127A, S397A) was also cloned into pSG5_CMV to create the YAP (FL)_hum_pSG5_mutS127A_S397A_CMV. The reporter plasmid GAL4(5×RE)_TK(−105/+56)_pGL3-Basic contains 5 copies of the GAL4 responsive element (5′-TCGGAGGACAGTACTCC-3′) upstream of the thymidine kinase (TK) promoter (−105/+56) inserted in a pGL3-Basic vector. To evaluate the selectivity of our compounds in blocking the YAP-TEAD interaction, a counter-screening protein-protein interaction transactivation assay was also established. Briefly, two other expression plasmids, the pBD-P53 which expresses the P53 (AA 72-390) in fusion with Gal4 and the pAD-SV40T which expresses the SV40 large T antigen (AA 84-708,AgT), were created. HEK293 cells were seeded at 5×10^4 cells/well in 96 well plates (assay plates) in DMEM medium containing 4.5 g/L D-glucose, 10% high inactivated (HI) fetal bovine serum 1% Glutamax, 1% non-essential amino acid and 1% sodium pyruvate and 0.5% penicillin/streptomycin at 37° C. in a humidified atmosphere of 8% CO2. After 24 h, transfections were performed using Jet-PEI as transfectant (101B-010 Polyplus Transfection), according to the instructions of the manufacturer (N/P=10) and a ratio YAP/TEAD=10 (per well: 50 ng of YAP(FL), 5 ng of TEAD(FL) and 50 ng of reporter plasmid). Six hours after cell transfection, the plates (‘assay plate’) were washed with 100 μl PBS per well and cells were treated with compounds in semi-log from 0.1 μM to 30 μM or DMSO 0.5% as control in DMEM, 4.5 g/L D-Glucose without phenol red, 0.3% BSA, 1% glutamax, 1% NEAA, 1% sodium pyruvate. 24 h later, the luciferase activity was determined after addition of 100 μl of Steady Glo™ luciferase assay system (Promega E2550) according to the manufacturer's directions. Luciferase activity in cell extracts was measured by reading luminescence using the Envision device.
The cellular response was determined by fitting the concentration response curves using a 3-parameter curve fit equation and determining the concentration that inhibited the luciferase activity by 50%.

T1 sequence (P28347 whole entry): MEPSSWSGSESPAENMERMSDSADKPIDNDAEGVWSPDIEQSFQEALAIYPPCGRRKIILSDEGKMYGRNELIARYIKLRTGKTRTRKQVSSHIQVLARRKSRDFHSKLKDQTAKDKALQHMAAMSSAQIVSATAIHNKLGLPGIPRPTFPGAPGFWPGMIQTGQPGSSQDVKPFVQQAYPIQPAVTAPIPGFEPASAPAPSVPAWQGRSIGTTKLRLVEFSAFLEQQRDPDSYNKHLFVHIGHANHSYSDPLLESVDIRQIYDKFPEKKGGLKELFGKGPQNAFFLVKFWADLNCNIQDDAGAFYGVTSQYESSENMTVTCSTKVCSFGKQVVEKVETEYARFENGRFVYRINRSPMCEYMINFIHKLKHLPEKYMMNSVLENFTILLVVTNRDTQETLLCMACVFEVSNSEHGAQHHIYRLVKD

Row | Emax [%] | IC50 [nM] | SMILES
1 | 75 | 2220 | CCN(/N=C/c1ccc2c(c1)COB2O)c1ncnc2cn[nH]c12 [Ex78, N-ethyl-N-[(E)-(1-hydroxy-3H-2,1-benzoxaborol-5-yl)methyleneamino]-1H-pyrazolo[4,3-d]pyrimidin-7-amine]
2 | 79 | 1750 | CCN(/N=C/c1ccc2c(c1)COB2O)c1ncnc2cc[nH]c12 [Ex81, N-ethyl-N-[(E)-(1-hydroxy-3H-2,1-benzoxaborol-5-yl)methyleneamino]-5H-pyrrolo[3,2-d]pyrimidin-4-amine]
3 | 81 | 610 | CCN(/N=C/c1ccc2c(c1)COB2O)c1ncnc2c1ccn2CC [Ex85, N,7-diethyl-N-[(E)-(1-hydroxy-3H-2,1-benzoxaborol-5-yl)methyleneamino]pyrrolo [2,3-d]pyrimidin-4-amine]
4 | 81 | 650 | CCN(/N=C/c1ccc2c(c1)COB2O)c1ncnc2[nH]ncc12 [Ex86, N-ethyl-N-[(E)-(1-hydroxy-3H-2,1-benzoxaborol-5-yl)methyleneamino]-1H-pyrazolo[3,4-d]pyrimidin-4-amine]
5 | 82 | 590 | CCN(/N=C/c1ccc2c(c1)COB2O)c1ncnc2ncsc12 [Ex87, N-ethyl-N-[(E)-(1-hydroxy-3H-2,1-benzoxaborol-5-yl)methyleneamino]-thiazolo[4,5-d]pyrimidin-7-amine]
6 | 80 | 630 | CCN(/N=C/c1ccc2c(c1)COB2O)c1nc(C)nc2c(C)csc12 [Ex88, N-ethyl-N-[(E)-(1-hydroxy-3H-2,1-benzoxaborol-5-yl)methyleneamino]-2,7-dimethyl-thieno[3,2-d]pyrimidin-4-amine]
7 | 83 | 1260 | CCN(/N=C/c1ccc2c(c1)COB2O)c1ncnc2cc(C)sc12 [Ex90, N-ethyl-N-[(E)-(1-hydroxy-3H-2,1-benzoxaborol-5-yl)methyleneamino]-6-methyl-thieno[3,2-d]pyrimidin-4-amine]
8 | 85 | 640 | CCN(/N=C/c1ccc2c(c1)COB2O)c1ncnc2c3c(sc12)CCCC3 [Ex91, N-ethyl-N-[(E)-(1-hydroxy-3H-2,1-benzoxaborol-5-yl)methyleneamino]-6,7,8,9-tetrahydrobenzothiopheno[3,2-d]pyrimidin-4-amine]
9 | 80 | 710 | Cc1csc2c(N(CC(C)C)/N=C/c3ccc4c(c3)COB4O)ncnc12 [Ex93, N-[(E)-(1-hydroxy-3H-2,1-benzoxaborol-5-yl)methyleneamino]-N-isobutyl-7-methyl-thieno[3,2-d]pyrimidin-4-amine]
10 | 79 | 660 | Cc1csc2c(N(CCO)/N=C/c3ccc4c(c3)COB4O)ncnc12 [Ex97, 2-[[(E)-(1-hydroxy-3H-2,1-benzoxaborol-5-yl)methyleneamino]-(7-methylthieno[3,2-d]pyrimidin-4-yl)amino]ethanol]
11 | 79 | 710 | CN(/N=C/c1ccc2c(c1)COB2O)c1ncnc2c(C3CC3)csc12 [Ex103, 7-cyclopropyl-N-[(E)-(1-hydroxy-3H-2,1-benzoxaborol-5-yl)methyleneamino]-N-methyl-thieno[3,2-d]pyrimidin-4-amine]
12 | 83 | 510 | CCc1csc2c(N(C)/N=C/c3ccc4c(c3)COB4O)ncnc12 [Ex105, 7-ethyl-N-[(E)-(1-hydroxy-3H-2,1-benzoxaborol-5-yl)methyleneamino]-N-methyl-thieno[3,2-d]pyrimidin-4-amine]

The remaining lines, values behind:

Row | SMILES | Emax [%] | IC50 [nM]
13 | COc1cc(C2=NN(c3ncnc4ccsc34)C(C)CC2)ccc1B(O)O (stereo not drawn) [Ex72, [2-methoxy-4-(3-methyl-2-thieno[3,2-d]pyrimidin-4-yl-4,5-dihydro-3H-pyridazin-6-yl)phenyl]boronic acid] | 85 | 1860
14 | COc1cc(C2=NN(c3ncnc4c3ccn4C)C(C)CC2)ccc1B(O)O (stereo not drawn) [Ex73, [2-methoxy-4-[3-methyl-2-(7-methylpyrrolo[2,3-d]pyrimidin-4-yl)-4,5-dihydro-3H-pyridazin-6-yl]phenyl]boronic acid] | 88 | 2240
15 | COc1cc(C2=NN(c3ncnc4cc(F)ccc34)CC(C)O2)ccc1B(O)O (stereo not drawn) [Ex74, [4-[4-(7-fluoroquinazolin-4-yl)-6-methyl-5,6-dihydro-1,3,4-oxadiazin-2-yl]-2-methoxy-phenyl]boronic acid] | 83 | 2360
16 | CCCn1ccc2c(N(CC)/N=C/c3ccc4c(c3)COB4O)ncnc21 [Ex84, N-ethyl-N-[(E)-(1-hydroxy-3H-2,1-benzoxaborol-5-yl)methyleneamino]-7-propyl-pyrrolo[2,3-d]pyrimidin-4-amine] | 85 | 1030
17 | CCN(/N=C/c1ccc2c(c1)COB2O)c1ncnc2cc(F)ccc12 [Ex89, N-ethyl-7-fluoro-N-[(E)-(1-hydroxy-3H-2,1-benzoxaborol-5-yl)-methyleneamino]quinazolin-4-amine] | 85 | 820
18 | COCCCN(/N=C/c1ccc2c(c1)COB2O)c1ncnc2nc(SC)sc12 [Ex96, N-[(E)-(1-hydroxy-3H-2,1-benzoxaborol-5-yl)methyleneamino]-N-(3-methoxypropyl)-2-methylsulfanyl-thiazolo[4,5-d]pyrimidin-7-amine] | 87 | 100
19 | CN(/N=C/c1ccc2c(c1)COB2O)c1ncnc2c1CCC(=O)N2 [Ex100, 4-[[(E)-(1-hydroxy-3H-2,1-benzoxaborol-5-yl)methyleneamino]-methyl-amino]-6,8-dihydro-5H-pyrido[2,3-d]pyrimidin-7-one] | 85 | 1410
20 | CN(/N=C/c1ccc2c(c1)COB2O)c1ncnc2c1CCO2 [Ex101, N-[(E)-(1-hydroxy-3H-2,1-benzoxaborol-5-yl)methyleneamino]-N-methyl-5,6-dihydrofuro[2,3-d]pyrimidin-4-amine] | 94 | 900
21 | CN(/N=C/c1ccc2c(c1)COB2O)c1ncnc2c(-c3ccccc3)csc12 [Ex102, N-[(E)-(1-hydroxy-3H-2,1-benzoxaborol-5-yl)methyleneamino]-N-methyl-7-phenyl-thieno[3,2-d]pyrimidin-4-amine] | 87 | 1990
22 | CN(/N=C/c1ccc2c(c1)COB2O)c1ncnc2c(N3CCOCC3)csc12 [Ex104, N-[(E)-(1-hydroxy-3H-2,1-benzoxaborol-5-yl)methyleneamino]-N-methyl-7-morpholino-thieno[3,2-d]pyrimidin-4-amine] | 79 | 1760
23 | CN1CCc2c1ncnc2N(C)/N=C/c1ccc2c(c1)COB2O [Ex106, N-[(E)-(1-hydroxy-3H-2,1-benzoxaborol-5-yl)methyleneamino]-N,7-dimethyl-5,6-dihydropyrrolo[2,3-d]pyrimidin-4-amine] | 83 | 1060
24 | CN(/N=C/c1ccc2c(c1)COB2O)c1ncnc2c1[nH]c(=O)n2C1CCC1 [Ex107, 9-cyclobutyl-6-[[(E)-(1-hydroxy-3H-2,1-benzoxaborol-5-yl)methyleneamino]-methyl-amino]-7H-purin-8-one] | 87 | 1650
25 | COCC1CC(n2c(=O)[nH]c3c(N(C)/N=C/c4ccc5c(c4)COB5O)ncnc32)C1 (stereo not drawn) [Ex108, 6-[[(E)-(1-hydroxy-3H-2,1-benzoxaborol-5-yl)methyleneamino]-methyl-amino]-9-[3-(methoxymethyl)cyclobutyl]-7H-purin-8-one] | 82 | 2590
26 | CN(/N=C/c1ccc2c(c1)COB2O)c1ncnc2c1[nH]c(=O)n2C1CC(O)C1 (stereo not drawn) [Ex109, 6-[[(E)-(1-hydroxy-3H-2,1-benzoxaborol-5-yl)methyleneamino]-methyl-amino]-9-(3-hydroxycyclobutyl)-7H-purin-8-one hydrochloride] | 86 | 1650
27 | CN(/N=C/c1ccc2c(c1)COB2O)c1ncnc2c1CC(=O)N2C1CCC1 [Ex111, 7-cyclobutyl-4-[[(E)-(1-hydroxy-3H-2,1-benzoxaborol-5-yl)methyleneamino]-methyl-amino]-5H-pyrrolo[2,3-d]pyrimidin-6-one] | 83 | 1580
